The test system of series [1] is Culex pipiens pallens fourth instar wiggler. The series is described as follows: Killing effect on wiggler, WHO immersing method, LC50. Conditions: for LC50: Culex pipiens pallens fourth instar wiggler, immersing method, mortality after 24 hours, 26±1° C.; for Relative toxicity: from wiggler LC50, Cypermethrin = 100. In kind it is in vivo. As to the method:
The following pyrethrates were tested as representatives according to the method recommended by the World Health Organization (WHO) (Zongbing ZHANG, the assay of toxicity of insecticides, the Science Press, 1988), the commonly used testing breed, Culex pipiens pallens fourth instar wiggler is used as a subject for biological assay, test temperature: 26±1° C., humidity: 70±10%; immersing method: a solution of a certain amount the compound to be tested in acetone was mixed evenly with pure water in the gradually decreasing concentration of 500, 250, 100, 50, 25, 12.5, 6.25, 3.125, 1, 0.5, 0.25, 0.1, 0.05, 0.025, 0.01, 0.005, 0.0025, 0.0001 mg/L, and the mortality of wiggler after 24 hours was calculated and LC50 was calculated to preliminarily evaluate the insecticidal activity. The results were shown in Table I. Compound 1-5 are representative examples of the compound of formula (I) of the present invention: the compounds involved in preparation Example 1-5 were prepared;
At the same time, their relative toxicities were compared with those of Cypermethrin, and Deltamethrin.

Series [2] can be described thus: Stability test, ultraviolet lamp irradiation, gas chromatography analysis. In kind it is physicochemical. Conditions: 0.15 mmol in 50 ml cyclohexane, 500 W ultraviolet lamp, 30 min. How it is done: 0.15 mmol of the compound of Preparation Example 2 (cis-α-cyano-3-phenoxy-4-fluoro-benzyl-2,2-dimethyl-3-(2-chlorovinyl)cyclopropane carboxylate) and 0.15 mmol of the corresponding dichloride compound (cis-α-cyano-3-phenoxy-4-fluoro-benzyl-2,2-dimethyl-3-(2,2-dichlorovinyl)cyclopropane carboxylate) were added to two vessels separately, to which 50 ml of cyclohexane were added separately. They were irradiated by a 500 W ultraviolet lamp for 30 min respectively. Then to each of the vessels were added 0.15 mmol of n-hexane as an internal standard for gas chromatography analysis. […] The photodegradation rate of the former is 1.9 times of that of the latter. That is to say, if the same amounts were used, the residue of the former in the environment is lower than that of the latter.

Here are results for 13 compounds from patent US8202904B2, “α-cyano-4-fluoro-3-phenoxybenzyl meta-halo pyrethrate, a process for preparing the same and the uses thereof” (East China Normal University, priority 2007, dated 2012).

Structures are written as SMILES. Converted amounts (≈) assume the structure as drawn. Where two headings read alike, the source gives them in different places.

Turning to `Cc1c(F)c(F)c(COC(=O)[C@H]2[C@@H](/C=C/Cl)C2(C)C)c(F)c1F` (relative stereo) [Compound 7, cis-2,3,5,6-tetrafluoro-4-methyl benzyl-3-(E-2-chlorovinyl)-2,2-dimethylcyclopropane carboxylate], in series [1], the LC50 worked out at 0.0741 µg/mL (≈ 0.211 µM) and the Relative toxicity worked out at 14.

As for `CC1(C)C(C=CCl)C1C(=O)OC(C#N)c1ccc(F)c(Oc2ccccc2)c1` (mixture of isomers) [Compound 1, cis/trans-α-cyano-3-phenoxy-4-fluoro-benzyl-2,2-dimethyl-3-(E/Z-2-chlorovinyl)cyclopropane carboxylate], in series [1], the LC50 stood at 0.00055 µg/mL and the Relative toxicity is reported as 1927.

Regarding `CC1(C)[C@@H](C=CCl)[C@@H]1C(=O)OC(C#N)c1cccc(Oc2ccccc2)c1` (relative stereo) [Compound 13, trans-α-cyano-3-phenoxybenzyl-2,2-dimethyl-3-(2-chlorovinyl)cyclopropane carboxylate], the LC50 in series [1] (read-out: LC50) came to 0.0527 µg/mL (≈ 0.138 µM). In series [1], this compound yielded a Relative toxicity of 20.

In series [1], `CC1(C)[C@H](/C=C/Cl)[C@@H]1C(=O)OCc1c(F)c(F)c(F)c(F)c1F` (relative stereo) [Compound 8, cis-pentafluorobenzyl-3-(E-2-chlorovinyl)-2,2-dimethyl cyclopropane carboxylate] displayed an LC50 of 0.0801 µg/mL (≈ 0.226 µM) and a Relative toxicity of 13.

For the compound `Cc1c(F)c(F)c(COC(=O)[C@H]2[C@H](C=CCl)C2(C)C)c(F)c1F` (relative stereo) [Compound 10, trans-2,3,5,6-tetrafluoro-4-methylbenzyl-3-(2-chlorovinyl)-2,2-dimethylcyclopropane carboxylate], the LC50 in series [1] (read-out: LC50) came to 0.0578 µg/mL (≈ 0.165 µM). In series [1], this compound had a Relative toxicity of 18.

In series [1], `CC1(C)[C@@H](C=CCl)[C@@H]1C(=O)OCc1c(F)c(F)c(F)c(F)c1F` (relative stereo) [Compound 11, trans-pentafluorobenzyl-3-(2-chlorovinyl)-2,2-dimethyl cyclopropane carboxylate] gave an LC50 of 0.2041 µg/mL (≈ 0.575 µM) and a Relative toxicity of 5.

Turning to `CC1(C)[C@H](C(=O)O[C@H](C#N)c2cccc(Oc3ccccc3)c2)[C@@H]1C=C(Br)Br` [Deltamethrin], the LC50 in series [1] (read-out: LC50) was 0.0012 µg/mL (≈ 0.00238 µM). Also, the Relative toxicity in series [1] is 883.

As to `CC1(C)[C@H](C=CBr)[C@@H]1C(=O)OC(C#N)c1cccc(Oc2ccccc2)c1` (relative stereo) [Compound 12, cis-α-cyano-3-phenoxybenzyl-2,2-dimethyl-3-(2-bromovinyl)cyclopropane carboxylate], the LC50 in series [1] (read-out: LC50) is 0.0108 µg/mL (≈ 0.0253 µM). Also, the Relative toxicity in series [1] is 98.

On to `CC1(C)C(C=C(Cl)Cl)C1C(=O)OC(C#N)c1cccc(Oc2ccccc2)c1` (stereo not shown) [Cypermethrin], for which the LC50 in series [1] (read-out: LC50) came out at 0.0106 µg/mL (≈ 0.0255 µM). Also, in series [1], the Relative toxicity is recorded as 100.

Regarding `CC1(C)[C@H](C=C(Cl)Cl)[C@@H]1C(=O)OC(C#N)c1ccc(F)c(Oc2ccccc2)c1` (relative stereo) [corresponding dichloride compound, cis-α-cyano-3-phenoxy-4-fluoro-benzyl-2,2-dimethyl-3-(2,2-dichlorovinyl)cyclopropane carboxylate, reference compound], the degraded by light in series [2] is listed as 14%.

In series [1], `CC1(C)[C@H](/C=C/Cl)[C@@H]1C(=O)OCc1c(F)c(F)cc(F)c1F` (relative stereo) [Compound 6, cis-2,3,5,6-tetrafluoro-4-benzyl-3-(E-2-chlorovinyl)-2,2-dimethylcyclopropane carboxylate] had an LC50 of 0.4810 µg/mL (≈ 1.43 µM) and a Relative toxicity of 2.

`CC1(C)[C@H](/C=C/F)[C@@H]1C(=O)OC(C#N)c1ccc(F)c(Oc2ccccc2)c1` (relative stereo) [Compound 5, cis-α-cyano-3-phenoxy-4-fluoro-benzyl-2,2-dimethyl-3-(E-2-fluorovinyl)cyclopropane carboxylate]: in series [1] (read-out: LC50), the LC50 was 0.00061 µg/mL (≈ 0.00159 µM). In series [1], this compound registered a Relative toxicity of 1740.

Regarding `CC1(C)[C@H](C=CBr)[C@H]1C(=O)OC(C#N)c1ccc(F)c(Oc2ccccc2)c1` (stereo partly drawn) [Compound 4, (1R)-Trans-α-cyano-3-phenoxy-4-fluoro-benzyl-2,2-dimethyl-3-(2-bromovinyl)cyclopropane carboxylate], the LC50 in series [1] (read-out: LC50) was determined as 0.0027 µg/mL (≈ 0.00608 µM). Besides, the Relative toxicity in series [1] was determined as 393.
